Legend:
[1] = test system: glucose-loaded rats; assay: Blood glucose time course after oral glucose loading in rats (Example I); format: in vivo; settings: Wistar rats, glucose 1 g/kg p.o.
Procedure: Wistar rats (age of 7 weeks; male) were divided into groups with matched body weights. After 17-hour starvation, glucose was orally given at 1 g/kg to the animals. Immediately after the administration, the inhibitor A of renal glucose reabsorption or the inhibitor B of renal glucose reabsorption (A at 30 mg/kg or 60 mg/kg; B at 30 mg/kg or 80 mg/kg) or glibenclamide (1 mg/kg or 2 mg/kg) or nateglinide (50 mg/kg or 80 mg/kg) was orally given. Additionally, a group on the combined use of both of an inhibitor of renal glucose reabsorption and a hypoglycemic agent was also prepared. A vehicle was orally given to a control group after glucose administration.
Blood glucose was measured in a time course.

[2] = test system: glucose-loaded mice; assay: Blood glucose time course after oral glucose loading in KK mice (Example II); format: in vivo; settings: glucose 1 g/kg p.o.
Procedure: KK mice (age of 25 weeks; male) fed with a commercially available high-calories feed for breeding (CMF; Oriental Yeast) were divided into groups with matched body weights. After starvation for 17 hours, glucose was orally given at 1 g/kg. Immediately thereafter, the inhibitor A of renal glucose reabsorption (30 mg/kg or 45 mg/kg) or metformin (200 mg/kg or 300 mg/kg) was orally given. Additionally, a group given with the inhibitor A of renal glucose reabsorption (30 mg/kg) and metformin (200 mg/kg) was prepared. A vehicle was orally given to a control group after glucose dosing.
Blood glucose level was assayed in a time course.

[3] = test system: Type 2 diabetic model GK rats; assay: Blood glucose after repeated once daily dosing in GK rats (Example III); format: in vivo; settings: once daily p.o., day 25, glibenclamide 3 mg/kg, inhibitor A 30 mg/kg, or both, vs vehicle-dosed group (Fig. 4)
Procedure: These agents were orally given once daily at the same time period as in the group administered with a single one agent. Only a vehicle was given orally to a control group. On day 25 after the start of administration, blood glucose was assayed sequentially, to compare the groups in terms of the resulting blood glucose levels.

[4] = test system: Type 2 diabetes model Zucker diabetic fatty rats; assay: Insulin content in pancreas after repeated dosing in Zucker diabetic fatty rats, ELISA (Example V); format: in vivo; settings: twice daily p.o., day 39, starved 18 hours, inhibitor A 30 mg/kg, metformin 200 mg/kg, or both, ELISA of pancreas homogenates (Fig. 5)
Procedure: The agents were orally given twice daily at the same time period as in the case of the groups administered with a single one of these agents. Only a vehicle was orally given twice daily to the animals in a control group. On day 39 from the start of administration, the animals were starved for 18 hours. Then, pancreas was resected from the animals, for the assay of insulin in pancreas homogenates by ELISA, to compare the groups in terms of insulin content in pancreas.

[5] = test system: Renal brush border membrane; assay: Assessment of inhibitory action of glucose uptake, 14C-D-glucose (Test Example 1A); format: biochemical, rat; settings: incubation 37 °C 30 minutes, 14C-D-glucose one minute
Procedure: Test compounds were dissolved in 100 mM mannitol-10 mM HEPES/Tris, pH 7.4 to prepare solutions at various concentrations.
Renal brush border membrane was prepared from a rat kidney, to which a solution of a test compound was added for incubation at 37 °C for 30 minutes. Then, ^14C-D-glucose was added for incubation for one minute. A solution containing 1 mM phlorizin was used to terminate the glucose uptake reaction. The radioactivity ^14C of ^14C-D-glucose incorporated in the renal brush border membrane was counted with a liquid scintillation counter. The glucose uptake independent on sodium was reduced from the glucose uptake in a control group or a test group, to calculate the inhibition intensity.

[6] = test system: Male Wistar rats; assay: Evaluation of urine sugar excretion action in rats (Test Example 1); format: in vivo; settings: 100 mg/kg p.o. in olive oil, urine collected 24 hours, per individual per day
Procedure: Male Wistar rats aged 5 weeks (purchased from Charles River Japan, Inc.) were acclimatized in metabolic cages for one week, for use at this experiment. The test compounds suspended in olive oil were prepared into a 20 mg/ml solution to a dose of 5 ml per 1 kg rat body weight.
After the rats were starved for 4 hours, the test compounds were orally given at 100 mg/kg to the rats at 11 am. Immediately after dosing until 24 hours later, urine was collected. The volume of urine was measured. Then, urine sugar concentration was assayed by glucose oxidase method, to calculate the glucose excretion into urine per individual per day.

[7] = glibenclamide 1 mg/kg, inhibitor A 30 mg/kg, or both, p.o., vs vehicle group (Fig. 1)
[8] = inhibitor A 30 mg/kg p.o., vs control group (Fig. 3)

Which results are given for CCc1ccc(Cc2c(O[C@@H]3O[C@H](CO)[C@@H](O)[C@H](O)[C@H]3O)nn(C3CCC3)c2C(F)(F)F)cc1 [1'-cyclobutyl-4'-[(4-ethylphenyl)methyl]-5'-trifluoromethyl-1H-pyrazole-3'-o-β-D-glucopyranoside]?
blood glucose level 120 minutes after glucose loading and thereafter [1, 7]: did not lower the blood glucose level 120 minutes after glucose loading and thereafter as greatly as glibenclamide did; hyperglycemia / blood glucose level immediately after glucose loading (30 minutes) [1, 7]: suppressed hyperglycemia; pattern of glycemic suppression at increased dose ([1]; glibenclamide 2 mg/kg or inhibitor A 60 mg/kg p.o., vs lower dose (Fig. 1)): did not change; blood glucose level 2 hours later and thereafter [2, 8]: could not suppress the blood glucose level; hyperglycemia 60 minutes after glucose loading [2, 8]: could suppress hyperglycemia; increase of blood glucose / hyperglycemia 30 minutes after glucose loading ([2]; metformin 200 mg/kg or inhibitor A 30 mg/kg p.o., vs control group (Fig. 3)): could suppress hyperglycemia; pattern of glycemic suppression at elevated dose ([2]; metformin 300 mg/kg or inhibitor A 45 mg/kg p.o., vs lower dose (Fig. 3)): did not change; blood glucose level [3]: significantly lowered; insulin content in pancreas [4]: no difference was observed

For CSc1ccc(Cc2c(O[C@@H]3O[C@H](CO)[C@@H](O)[C@H](O)[C@H]3O)n[nH]c2C(F)(F)F)cc1 [Compound of Production Example 1-A, 4-((4-methylthiophenyl)methyl)-5-(trifluoromethyl)-1H-pyrazole-3-o-β-D-glucopyranoside], which “Inhibition intensity (concentration of test compound)” value ([5]; 10 µM test compound) is on record?
Its value is 84 % (10 µM).

With CCc1ccc(Cc2c(O[C@@H]3O[C@H](COC(=O)OC)[C@@H](O)[C@H](O)[C@H]3O)nn(C3CCC3)c2C(F)(F)F)cc1 [Compound of Production Example 2, 1'-cyclobutyl-4'-[(4-ethylphenyl)methyl]-5'-trifluoromethyl-1H-pyrazole-3'-o-(6-carbomethoxy)-β-D-glucopyranoside] as the molecule, how does the “Urine sugar excretion” value [6] read?
The value was 656 mg.

For CCc1ccc(Cc2c(O[C@@H]3O[C@H](C(=O)O)[C@@H](O)[C@H](O)[C@H]3O)n[nH]c2C(F)(F)F)cc1 [Compound of Production Example 2-A, 4-((4-ethylphenyl)methyl)-5-(trifluoromethyl)-1H-pyrazol-3-yl-β-D-glucopyranoside uronic acid], which “Inhibition intensity (concentration of test compound)” value ([5]; 100 µM test compound) is on record?
Its value is 30 % (100 µM).

Which “Urine sugar excretion” value [6] does the source give for CCc1ccc(Cc2c(O[C@@H]3O[C@H](COC(=O)OC)[C@@H](O)[C@H](O)[C@H]3O)nn(C3CCCC3)c2C(F)(F)F)cc1 [Compound of Production Example 4, 1'-cyclopentyl-4'-[(4-ethylphenyl)methyl]-5'-trifluoromethyl-1H-pyrazole-3'-o-(6-carbomethoxy)-β-D-glucopyranoside] here?
Its value is 452 mg.

— EP1500403A1, “PREVENTIVE/REMEDY FOR DIABETES” (Ajinomoto Co., Inc., priority 2002, dated 2003)
